{
  "source": "patent US20050282734A1",
  "about": "(priority 1998, published 2005)",
  "key": {"[1]": {"details": "Magri et al. (1988); cited from earlier work"}, "[2]": {"target": "HSA (Homo sapiens, UniProt P02768)", "sequence (P02768 25-609)": "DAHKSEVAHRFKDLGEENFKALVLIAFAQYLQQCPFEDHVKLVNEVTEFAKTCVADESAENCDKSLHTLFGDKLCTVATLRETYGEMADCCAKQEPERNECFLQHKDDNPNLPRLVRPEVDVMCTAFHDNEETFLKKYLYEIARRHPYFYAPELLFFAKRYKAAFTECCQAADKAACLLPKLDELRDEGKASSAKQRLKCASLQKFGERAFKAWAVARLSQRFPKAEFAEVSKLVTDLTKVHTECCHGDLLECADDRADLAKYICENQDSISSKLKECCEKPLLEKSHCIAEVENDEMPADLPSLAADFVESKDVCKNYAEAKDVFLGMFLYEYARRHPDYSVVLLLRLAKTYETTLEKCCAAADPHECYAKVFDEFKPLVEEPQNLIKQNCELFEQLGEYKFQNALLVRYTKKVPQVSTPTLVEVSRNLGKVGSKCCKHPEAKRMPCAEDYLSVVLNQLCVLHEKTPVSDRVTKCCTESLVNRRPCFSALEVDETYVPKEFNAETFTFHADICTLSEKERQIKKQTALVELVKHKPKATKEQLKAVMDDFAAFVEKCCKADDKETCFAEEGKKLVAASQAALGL", "assay": "Effect of antioxidants on HSA dimerization at acidic pH (SDS-PAGE, reducing and non-reducing)", "details": "acidification of commercial HSA to pH 3.0-3.3; compared with ascorbic acid, L-cysteine, sodium thiosulfate", "quoted_text": "This experiment evaluated a number of conditions to maintain HSA in the formulation, primarily in the monomeric form.\nEvaluation of different antioxidants with undefatted and defatted acidic HSA preparations. • The following reducing reagents were tested: ascorbic acid, L-cysteine, dithioerythritol (DTE) and dithiothreitol (DTT), sodium metabisulfite, sodium thiosulfate, and thioacetic acid. • Different preparations of HSA (10%), including HSA-A, HSA-B, and HSA-D, were treated with antioxidant at different concentrations, ranging from 2 to 40 mM. • The HSA solutions were incubated at 2-8° C. for up to a month, and prevention of dimerization was analyzed by SDS-PAGE under both reducing and non-reducing conditions.\nAnalysis of the effect of antioxidant on prevention of HSA dimerization at low pH. • 5.\n3.3 Add 80 μL of antioxidant solution to the 1.92 mL of HSA-A (20%) in 2×9′ (18) the 15-mL conical tubes as follows:\n• Sample 9 will be the control sample for either HSA-B or HSA-D, untreated. • 3.4 Incubate the samples at 2-8° C. for at least 4 h. • 3.5 In the meantime, • 3.5.1 Prepare material for acidification and defatting of HSA. • 3.5.2 Prepare another 2×9 (18) set of 15-mL conical centrifuge tubes (sterile). […]"}, "[3]": {"test_system": "collagenase", "details": "10^−7 M paclitaxel, chondrocytes stimulated by tumor necrosis factor and interleukin-1; cited from earlier work"}, "[4]": {"assay": "Solubility of paclitaxel in aqueous ethanol saline solution (visual turbidity)", "type": "physicochemical", "experimental": "Reagents Preparation • 1. […] A 20-ml physiological saline stock solution was also prepared in a small bottle (or flask) and designated the 1× saline stock solution.\n4. The tubes were incubated at room temperature and observed at 0 h, 1 h and 3 h for precipitate formation. The results were recorded as + or − turbidity formation."}, "[5]": {"target": "T1, human serum albumin (HSA) (Homo sapiens, UniProt P02768)", "T1 sequence (P02768 25-609)": "as above", "assay": "Paclitaxel binding to HSA: ultrafiltration (10 kDa), free and total Ptx by ELISA and/or reverse-phase HPLC", "design": "purchased Desert Biologicals, Phoenix, Ariz", "details": "pH 7.1", "experimental": "• 1. […] Procedure • 1. […] Saline in water could also be added to the test tubes so that all the test tubes have substantially identical sodium chloride concentrations. • 3. […] The test tubes were covered with a piece of parafilm or in stoppered serum bottles and then incubated at room temperature, with occasional shaking (2 to 3 times). • 6. At 0 hr, 3 hr, and/or 18/24 hr of incubation, the samples were observed qualitatively for precipitate formation. • 7. At the end of the 18-24 hr incubation period, the reaction mixtures were analyzed for turbidity at 600 nm using a Shimadzu 160U UV/visible spectrophotometer (NBI Track #F1174). • 8. […] Analytical methods.\nProcedure • 1. […] The test tubes were covered with a parafilm and then incubated at room temperature, with occasional shaking. Alternatively, the mixtures were prepared in stoppered serum vials. • 6.\nThis unbound fraction can be quantitated by reverse phase HPLC, and/or ELISA."}, "[6]": {"target": "T1, human serum albumin (HSA)", "assay": "Recovery of soluble Ptx and binding to HSA by liquid scintillation counting (radioactive Ptx; R, S, F fractions)"}, "[7]": {"test_system": "synoviocytes", "details": "in vitro, cited from earlier work"}, "[8]": {"details": "mice, co-administered P-glycoprotein blocker; cited from earlier work"}},
  "data": [
    {"smiles": "CC(=O)O[C@H]1C(=O)[C@@]2(C)[C@H]([C@H](OC(=O)c3ccccc3)[C@]3(O)C[C@H](OC(=O)[C@H](O[Si](C)(C)C(C)(C)C)[C@@H](NC(=O)c4ccccc4)c4ccccc4)C(C)=C1C3(C)C)[C@]1(OC(C)=O)CO[C@@H]1C[C@@H]2O", "note": "[2′-(t-butyldimethylsilyl)taxol]", "values": [
      {"measurement": "in vivo activity compared with paclitaxel", "setting": "[1]", "result": "essentially inactive"}
    ]},
    {"smiles": "CC(=O)O[C@H]1C(=O)[C@@]2(C)[C@H]([C@H](OC(=O)c3ccccc3)[C@]3(O)C[C@H](OC(=O)[C@H](OC(=O)CCC(=O)O)[C@@H](NC(=O)c4ccccc4)c4ccccc4)C(C)=C1C3(C)C)[C@]1(OC(C)=O)CO[C@@H]1C[C@@H]2O", "note": "[2′-succinyltaxol]", "values": [
      {"measurement": "in vivo activity compared with paclitaxel", "setting": "[1]", "result": "decreased in vivo activity"}
    ]},
    {"smiles": "O[C@H](CS)[C@@H](O)CS", "note": "[DTE, dithioerythritol]", "values": [
      {"measurement": "effectiveness in minimizing the HSA dimerization reaction", "setting": "[2]", "result": "most effective"}
    ]},
    {"smiles": "CC(=O)O[C@H]1C(=O)[C@@]2(C)[C@H]([C@H](OC(=O)c3ccccc3)[C@]3(O)C[C@H](OC(=O)[C@H](O)[C@@H](NC(=O)c4ccccc4)c4ccccc4)C(C)=C1C3(C)C)[C@]1(OC(C)=O)CO[C@@H]1C[C@@H]2O", "note": "[Ptx, paclitaxel]", "values": [
      {"measurement": "reduction of collagenase expression", "setting": "[3]", "result": "over 50%"},
      {"measurement": "time until paclitaxel solutions turned cloudy", "setting": "[4]; 500 μg/ml paclitaxel, 20% ethanol or less, room temperature", "result": "≤ 5", "unit": "min"},
      {"measurement": "paclitaxel concentration at which solutions remained clear for at least 3 hours", "setting": "[4]; aqueous ethanol saline solutions, room temperature", "result": "≤ 50", "unit": "µg/mL"},
      {"measurement": "paclitaxel concentration at which clear solutions were obtained", "setting": "[4]; aqueous ethanol solutions (5% to 25%), after a 1-h incubation at room temperature", "result": "less than 100 μg/ml"},
      {"measurement": "solubility of paclitaxel at 500 μg/ml", "setting": "[4]; saline solution containing up to 25% ethanol, after 1 hr", "result": "not soluble"},
      {"measurement": "recovery at 50 μg/mL", "setting": "[5]; defatted human serum albumin (HSA) solution", "result": 73, "unit": "%"},
      {"measurement": "recovery at 50 μg/mL", "setting": "[5]; non-defatted human serum albumin (HSA) solution", "result": 89, "unit": "%"},
      {"measurement": "chemical stability of Ptx in alkaline pH formulations", "setting": "[6]", "result": "poor"},
      {"measurement": "concentration cytotoxic to the synoviocytes", "setting": "[7]", "result": "10^−6 to 10^−5 M"},
      {"measurement": "concentration inhibiting proliferation of synoviocytes and inducing apoptosis", "setting": "[7]; concentrations as low as", "result": "10^−7 M"}
    ]},
    {"smiles": "C/C=C/C[C@@H](C)C(=O)[C@H]1C(=O)N[C@@H](C(C)C)C(=O)N(C)CC(=O)N(C)[C@@H](CC(C)C)C(=O)N[C@@H](C(C)C)C(=O)N(C)[C@@H](CC(C)C)C(=O)N[C@@H](C)C(=O)N[C@H](C)C(=O)N(C)[C@@H](CC(C)C)C(=O)N(C)[C@@H](CC(C)C)C(=O)N(C)[C@@H](C(C)C)C(=O)N1C", "note": "[SDZ PSC 833]", "values": [
      {"measurement": "increase in oral bioavailability of paclitaxel", "setting": "[8]", "result": 10, "unit": "fold"}
    ]}
  ]
}
